Target: T1, AKT1 (Homo sapiens, UniProt P31749)
T1 construct: Insect cells expressing His-tagged AKT1 (aa 136-480) were lysed; His; made in house; host or cells: insect cells
Experiment: AKT1 kinase inhibition assay (substrate phosphorylation, SPA)
Format: biochemical
Details: catalytic domain of AKT1; 10 nM activated AKT enzyme, 4 uM ATP, 8 uM peptide, 40 minutes at room temperature
Method: Isolation and Purification of His-tagged AKT1 (aa 136-480)
Insect cells expressing His-tagged AKT1 (aa 136-480) were lysed in 25 mM HEPES, 100 mM NaCl, 20 mM imidazole; pH 7.5 using a polytron (5 mLs lysis buffer/g cells). Cell debris was removed by centrifuging at 28,000×g for 30 minutes. The supernatant was filtered through a 4.5-micron filter then loaded onto a nickel-chelating column pre-equilibrated with lysis buffer. The column was washed with 5 column volumes (CV) of lysis buffer then with 5 CV of 20% buffer B, where buffer B is 25 mM HEPES, 100 mM NaCl, 300 mM imidazole; pH 7.5. His-tagged AKT1 (aa 136-480) was eluted with a 20-100% linear gradient of buffer B over 10 CV. […]
Compounds of the present invention are tested for AKT 1, 2, and 3 protein serine kinase inhibitory activity in substrate phosphorylation assays. […] Substrate phosphorylation is detected by the following procedure:
Assays are performed in 384well U-bottom white plates. […] The reaction is stopped by the addition of 50 ul SPA bead mix (Dulbecco's PBS without Mg^2+ and Ca^2+, 0.1% Triton X-100, 5 mM EDTA, 50 uM ATP, 2.5 mg/ml Streptavidin-coated SPA beads.) The plate is sealed, the beads are allowed to settle overnight, and then the plate is counted in a Packard Topcount Microplate Scintillation Counter (Packard Instrument Co., Meriden, Conn.). […]

T1 sequence (P31749 136-480): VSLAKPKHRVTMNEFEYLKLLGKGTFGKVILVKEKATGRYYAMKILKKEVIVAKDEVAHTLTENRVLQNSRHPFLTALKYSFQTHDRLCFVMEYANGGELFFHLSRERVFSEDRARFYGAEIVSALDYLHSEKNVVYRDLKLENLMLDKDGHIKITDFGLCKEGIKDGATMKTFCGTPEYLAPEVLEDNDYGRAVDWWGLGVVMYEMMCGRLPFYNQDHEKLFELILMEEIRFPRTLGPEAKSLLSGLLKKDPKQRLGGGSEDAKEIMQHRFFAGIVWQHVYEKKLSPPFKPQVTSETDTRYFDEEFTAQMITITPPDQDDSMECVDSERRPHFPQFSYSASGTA

- IC50: 182 nM
SMILES: Cc1n[nH]c2ccc(-c3cc(OC[C@@H](N)Cc4ccccc4)cnc3-c3ccccc3)cc12 [Example 1, (S)-1-Benzyl-2-[5-(3-methyl-1H-indazol-5-yl)-6-phenyl-pyridin-3-yloxy]-ethylamine]

— patent US20070185152A1, “Inhibitors of akt activity” (Smithkline Beecham Corporation, priority 2004, published 2007)
